# Experimental data: patent publication US8592394B2, “Synthetic derivatives beta glycolipids and compositions thereof for the treatment of pathologic disorders” (Enzo Therapeutics, Inc., priority 2003, dated 2013)
# How the values were obtained:
# IL-6 = assay: Serum IL-6 by ELISA in ConA induced hepatitis; assay type: in vivo, mice; details: intraperitoneal
# Procedure: (§1) Serum levels of IFN-γ, TGF-β, TNF-α IL-2, IL-4, IL-6, IL-10 and IL-12 were determined by “sandwich” ELISA, using commercial kits (Quantikine, R&D Systems, Minneapolis, Minn., USA). Serum insulin was also determined by “sandwich” ELISA too, using the commercial kit of Mercodia AB (Uppsala, Sweden) according to the manufacturer's instructions.
# ob/ob mice [1] = assay: Fasting glucose and glucose tolerance test in ob/ob mice; assay type: in vivo
# Procedure: Mice underwent a glucose tolerance test (GTT) on day 30 after overnight fasting. Glucose was administered orally (1.25 g per kg). Serum glucose measurements were performed on tail-vein blood every 15 min for 3 h. Glucose levels were measured by a standard glucometer.
# (§2) Therefore, five groups of male C57BL/6 Ob/Ob mice were studied. Mice (6 per group) were fed (per os) daily for 4 weeks with 15 or 45 μg of GC (groups B and C, respectively) and 15 or 45 μg of ALIB-97 (groups D and E, respectively). Control mice (Group A) were administered vehicle only.
# STAT1 = assay: Immunoblot of liver lysates: STAT1 phosphorylation; assay type: in vivo, mice; details: IP
# Procedure: (§3) For ConA induced hepatitis experiments spleen and liver lysates were lysed in RIPA buffer containing 50 mM Tris, pH 7.4, 1% NP-40, 150 mM NaCl, 0.1% SDS, 0.5% sodium deoxycholate and protease inhibitors (5 μg/ml, Sigma), with protease and phosphatase (Sigma, Rehovot, Israel).
# (§4) Lysates were centrifuged twice at 4° C. for 10 minutes in 14000 rpm. Equivalent amounts of lysates (15 μg/lane), determined by Bradford assay (Bio-Rad, Rehovot, Israel), were separated by sodium dodecyl sulfate polyacrylamide gel electrophoresis (SDS-PAGE) and transferred to nitrocellulose membranes.
# For ConA induced hepatitis experiments proteins were detected with phospho-specific STAT1-Tyr701, STAT6-Tyr641, STAT1, and STAT6 antibodies from Cell Signaling. β-actin (abcam, UK) was used as a loading control.
# (§5) Blots were developed with horseradish peroxidase-conjugated secondary antibodies (Jackson Laboratories Bar Harbor, Me.) and Western Blot-Luminol Reagent (Santa Cruz Biotechnology, CA, USA). Cell counting and western Blot quantification was performed using total Lab (Phoretix, USA) software.
# IL-10 = assay: Serum IL-10 by ELISA in ConA induced hepatitis; assay type: in vivo, mice; details: for serum IL-10: intraperitoneal
# Procedure: as §1
# fat-associated T cells = assay: Flow cytometry of T cell subsets in adipose tissue, stromal vascular cells and spleen of ob/ob mice; assay type: in vivo; details: 45 μg per os daily 4 weeks, vs vehicle
# Procedure: Splenocytes and intrahepatic lymphocytes were isolated as follows: livers and spleens were kept in RPMI-1640+FCS. Then spleens were crushed through a 70 μm nylon cell strainer (Falcon) and centrifuged (1250 rpm for 7 min) for the removal of cell debris. Red blood cells were lysed with 1 ml of cold 155 mM ammonium chloride lysis buffer and centrifuged (1250 rpm for 3 min). Splenocytes were resuspended with 1 ml RPMI+FCS. Cell viability by trypan blue staining was above 90%. For intrahepatic lymphocytes, livers were crushed through a stainless mesh (size 60, Sigma) and the cell suspension was placed in a 50-ml tube for 5 min. Lymphoprep (10 ml, Ficoll, Axis-Shield PoC AS, Oslo, Norway) was placed under similar volume of cell suspension in 50-ml tubes. Tubes were centrifuged at 1800 rpm for 18 min. Cells in the interface were collected and centrifuged at 1800 rpm for 10 min, to obtain a pellet of cells depleted of hepatocytes to a final volume of 250 μl. Approximately 1×10^6 cells/mouse liver, were recovered.
# Adipose tissue (visceral fat pads) was minced and incubated in Krebs-Ringer bicarbonate buffer (3 mL/g adipose tissue) containing 10mM glucose and 2.5% bovine serum albumin, incubated with 840 U/g collagenase type I (Sigma, Rehovot, Israel)) at 37° C. for 1 hour. Cells were filtered twice through chiffon mesh (100 μm) and centrifuged 50 g for 5 min. Floating adipocytes were separated from pelleted S/V fraction. The infranatant fraction was removed and centrifuged at 200 g for five minutes to pellet the S/V cells.
# For metabolic syndrome experiments, the following antibodies were used for flow cytometry: anti-CD4-Pacific Blue, anti-CD8-FITC, anti-IL-17-PE, anti CD25-PercP-Cy5.5 and anti FOX3p PE-Cy725 (all from eBioscience, San Diego, Calif.). Surface staining was performed by incubating cells with antibodies and anti-CD16/32 (blocks Fc, eBioscience) at 4° C. in FACS buffer containing PBS and 0.5% BSA, for 30 min. Cells were washed twice with FACS buffer, resuspended in FACS buffer, and analyzed by flow cytometry. Appropriate isotype controls were used in all experiments. Intracellular staining was performed using Foxp3 staining buffer kit (eBioscience, San Diego, Calif.). Cells were incubated with 1 ml Fixation/Permeabilization solution for 50 min, washed twice with Permeabilization buffer and incubated with anti-Foxp3 Ab for 50 min. Cells were then washed twice with Permeabilization buffer and resuspended with FACS buffer. Analysis was performed using a FACSCalibur instrument (Becton Dickinson, San Jose, Calif.) with FCS express V.3 software (DeNovo software, Los Angeles, Calif.).
# as §2
# ob/ob mice [2] = assay: Serum ALT and AST (hepatic injury) in ob/ob mice; assay type: in vivo; details: for serum AST: vehicle group A 710
# Procedure: The effect of β-glycolipids on liver injury was evaluated by serum aspartyl transaminase (AST) and alanine aminotransferase (ALT) activities, which were determined by a clinical chemistry analyzer, Reflovet Plus (Roche Diagnostics, GmbH, Mannheim, Germany).
# as §2
# STAT4 = assay: Immunoblot of liver lysates: STAT4; assay type: in vivo, mice; details: IP
# Procedure: as §3, §4, §5
smiles,measurement,setting,value
"CCCCCCCCCCCCCC=CC(O)C(CO[C@@H]1OC(CO)[C@@H](O)C(O)C1O)NC(=S)NC12CC3CC(CC(C3)C1)C2 (stereo in doubt) [ALIB-97, N-adamantyl-N′-glucosylsphingosine thiourea]",serum IL-6 levels,IL-6; B6 mice,reduced
same,serum IL-6 levels,IL-6; Jα18−/− mice,reduced
same,"time at which the decrease in glucose levels (GTT, relative to time 0) reached statistical significance","ob/ob mice [1]; day 30, 15 μg per os daily",90 min
same,"time at which the decrease in glucose levels (GTT, relative to time 0) reached statistical significance","ob/ob mice [1]; day 30, 45 μg per os daily",60 min
same,STAT1 phosphorylation of Tyr 701 in the liver,STAT1; B6 mice,increased
same,STAT1 phosphorylation of Tyr 701 in the liver,STAT1; CD1d−/− mice,increased
same,serum IL-10,IL-10; B6 mice,increased
same,IL-10 serum levels,"IL-10; B6 mice, oral administration, after 20 hours",Decreased
same,serum IL-10,IL-10; CD1d−/− mice,increased
same,serum IL-10,IL-10; Jα18−/− mice,increased
same,"CD4+CD25+FOXP3+ cells, ADIPOCYTES",fat-associated T cells,↑↑ (↓/↑ and ↓↓/↑↑-p≦0.05 and p≦0.01 respectively)
same,"CD4+CD25+IL17+ cells, SVC",fat-associated T cells,↑ (↓/↑ and ↓↓/↑↑-p≦0.05 and p≦0.01 respectively)
same,"CD4+FOXP3+ cells, SPLEEN",fat-associated T cells,↓ (↓/↑ and ↓↓/↑↑-p≦0.05 and p≦0.01 respectively)
same,"CD4+FOXP3+IL17+ cells, ADIPOCYTES",fat-associated T cells,↓ (↓/↑ and ↓↓/↑↑-p≦0.05 and p≦0.01 respectively)
same,"CD4+IL17+ cells, ADIPOCYTES",fat-associated T cells,↓ (↓/↑ and ↓↓/↑↑-p≦0.05 and p≦0.01 respectively)
same,"CD8+CD25+ cells, ADIPOCYTES",fat-associated T cells,↓ (↓/↑ and ↓↓/↑↑-p≦0.05 and p≦0.01 respectively)
same,"CD8+CD25+FOXP3+ cells, SPLEEN",fat-associated T cells,↑↑ (↓/↑ and ↓↓/↑↑-p≦0.05 and p≦0.01 respectively)
same,"CD8+CD25+FOXP3+ cells, SVC",fat-associated T cells,↓ (↓/↑ and ↓↓/↑↑-p≦0.05 and p≦0.01 respectively)
same,"CD8+CD25+FOXP3+IL17+ cells, ADIPOCYTES",fat-associated T cells,↓ (↓/↑ and ↓↓/↑↑-p≦0.05 and p≦0.01 respectively)
same,"CD8+CD25+FOXP3+IL17+ cells, SPLEEN",fat-associated T cells,↑ (↓/↑ and ↓↓/↑↑-p≦0.05 and p≦0.01 respectively)
same,"CD8+CD25+IL17+ cells, ADIPOCYTES",fat-associated T cells,↑ (↓/↑ and ↓↓/↑↑-p≦0.05 and p≦0.01 respectively)
same,"CD8+CD25+IL17+ cells, SVC",fat-associated T cells,↑ (↓/↑ and ↓↓/↑↑-p≦0.05 and p≦0.01 respectively)
same,"CD8+FOXP3+ cells, SPLEEN",fat-associated T cells,↑↑ (↓/↑ and ↓↓/↑↑-p≦0.05 and p≦0.01 respectively)
same,"CD8+FOXP3+IL17 cells, ADIPOCYTES",fat-associated T cells,↓↓ (↓/↑ and ↓↓/↑↑-p≦0.05 and p≦0.01 respectively)
same,"CD8+IL17+ cells, ADIPOCYTES",fat-associated T cells,↓ (↓/↑ and ↓↓/↑↑-p≦0.05 and p≦0.01 respectively)
same,"CD25+FOXP3+ cells, SPLEEN",fat-associated T cells,↓ (↓/↑ and ↓↓/↑↑-p≦0.05 and p≦0.01 respectively)
same,serum AST,"ob/ob mice [2]; day 30, 15 μg per os daily",289 u/L
same,serum ALT,"ob/ob mice [2]; day 30, 45 μg per os daily, vehicle group A 370, p<0.05",165 u/L
same,serum AST,"ob/ob mice [2]; day 30, 45 μg per os daily",124 u/L
same,STAT4 expression in the liver,STAT4; B6 mice,strikingly decreased
same,STAT4 expression in the liver,STAT4; CD1d−/− mice,remained unchanged
